Test results reported in US9351998B2, “Methods of nourishing animals” (MariCal, Inc., priority 2008, dated 2016).
“Also recorded” adds a separate entry of the source.

How the values were obtained:
chick jejunal CaSR = assay: phospho-ERK immunoblot of HEK cells transfected with chick jejunal CaSR cDNA after increase in extracellular Ca2+; format: cell-based, chicken; conditions: extracellular Ca2+ increased 0.5 mM to 10 mM
Experimental: HEK-293 cells were plated into 6-well plates so that the cells were 90% confluent at the time of transfection. The linearized and non-linearized plasmids were ethanol precipitated and quantified spectrophotometrically. A ratio of DNA to lipofectamine of 1:3.5 (4 μg of DNA and 14 μl Lipofectamine 2000) was used for the transfection procedure. To provide a negative control, only Lipofectamine was added to some HEK cells. After exposure to lipofectamine, hygromycin B (400 μg/ml) was used to select for HEK cells that had been transfected since the plasmid containing the putative CaSR sequence also contained a hygromycin resistance element.
At the start of hygromycin selection, flasks were about 40% confluent. All flasks experienced a high percentage of die off cells. After an interval of 10 days, all the cells in the negative control flasks were dead. […] Linear flask 1 and non-linear flask 1 were trypsinized by addition of 200 μl trypsin to redistribute dense colonies and prevent overcrowding 10 days after the start of hygromycin selection. New complete media was added containing 400 μg/ml hygromycin. At day 14, flasks had multiple colonies that were well spread out and were beginning to look overcrowded. Each flask was trypsinized, centrifuged and re-plated in a new flask, still under hygromycin selection. At day 17, transfected HEK cells were 60% confluent. […]

mammalian CaSR = biological target: T1, mammalian CaSR (Homo sapiens, UniProt P41180); assay: FURA2 ratio imaging fluorimetry of HEK cells stably expressing mammalian CaSR; format: cell-based
T1 construct: expressed in transfected cells; host or cells: HEK cells stably expressing the mammalian CaSR
T1 sequence (P41180 20-1078): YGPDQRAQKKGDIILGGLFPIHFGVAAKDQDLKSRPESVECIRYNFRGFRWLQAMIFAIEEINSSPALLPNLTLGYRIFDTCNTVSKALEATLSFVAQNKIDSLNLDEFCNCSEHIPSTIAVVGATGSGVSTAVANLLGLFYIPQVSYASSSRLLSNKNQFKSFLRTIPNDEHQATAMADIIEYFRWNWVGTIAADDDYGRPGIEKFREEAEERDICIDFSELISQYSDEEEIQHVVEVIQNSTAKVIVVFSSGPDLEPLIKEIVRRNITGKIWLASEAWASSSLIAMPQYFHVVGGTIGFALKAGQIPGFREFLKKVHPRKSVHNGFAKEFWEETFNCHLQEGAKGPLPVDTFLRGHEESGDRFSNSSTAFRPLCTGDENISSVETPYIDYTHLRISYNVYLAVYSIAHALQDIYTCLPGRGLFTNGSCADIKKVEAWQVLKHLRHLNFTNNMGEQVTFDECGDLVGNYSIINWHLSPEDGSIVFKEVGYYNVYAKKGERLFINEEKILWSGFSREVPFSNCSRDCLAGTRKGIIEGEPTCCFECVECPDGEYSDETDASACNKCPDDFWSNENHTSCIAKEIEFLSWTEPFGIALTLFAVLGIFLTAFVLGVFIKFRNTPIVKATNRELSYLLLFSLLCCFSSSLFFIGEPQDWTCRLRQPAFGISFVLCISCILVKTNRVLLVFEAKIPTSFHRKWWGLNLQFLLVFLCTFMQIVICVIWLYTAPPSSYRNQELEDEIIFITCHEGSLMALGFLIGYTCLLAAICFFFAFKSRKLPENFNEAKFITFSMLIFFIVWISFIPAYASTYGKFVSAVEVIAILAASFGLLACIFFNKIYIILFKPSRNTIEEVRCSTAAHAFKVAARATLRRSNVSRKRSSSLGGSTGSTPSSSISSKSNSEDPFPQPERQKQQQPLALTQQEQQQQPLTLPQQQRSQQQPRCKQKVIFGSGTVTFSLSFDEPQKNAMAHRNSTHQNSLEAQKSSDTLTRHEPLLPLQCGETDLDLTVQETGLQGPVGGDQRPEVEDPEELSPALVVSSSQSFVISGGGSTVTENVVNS
Text: (§1) All methods and equipment utilized to perform experiments on HEK cells have been reported previously (Gama, L. and Breitwieser, G. E. 1998. A carboxyl-terminal domain controls the cooperativity for extracellular Ca2+ activation of the human calcium sensing receptor. A study with receptor-green fluorescent protein fusions. J. Biol. Chem. 273, 29712-29718; Bai, M., Quinn, S., Trivedi, S., Kifor, 0., Pearce, S. H., Pollak, M. R., Krapcho, K., Hebert, S. C. and Brown, E. M. 1996. Expression and characterization of inactivating and activating mutations in the human Ca2+o-sensing receptor. J. Biol. Chem. 271, 19537-19544). Untransfected HEK cells or, alternatively, cells transfected and expressing CaSR protein were cultured in Dulbecco's Modified Eagle Medium containing 10% fetal bovine serum and 1% penicillin-streptomycin in 75 cm^2 flasks until they reached confluence. Media was removed from the flasks and cells were loaded by exposure to Loading Buffer (125 mM NaCl, 4 mM KCl, 1.0 mMCaCl2, 1.0 mM MgCl2, 1 mM NaH2PO4, 20 mM HEPES, 1 gm/liter bovine serum albumin, and 1 gm/l glucose, pH ˜7.4, osmolality ˜285) containing 4.1 micromolar FURA2-AM (Molecular Probes Inc. Eugene, Oreg.) for 2 hr. Cells were then scraped from the surface of the flask using a standard cell scraper (Costar 3010, Corning Inc.). Cells were then pelleted from the suspension by low speed centrifugation to remove loading buffer and rinsed twice to remove extracellular FURA2 dye by two sequential suspensions and pelleting steps using low speed centrifugation. Immediately prior to the start of the experiment, cells were resuspended in various experimental buffers for analyses as described below. The Standard Experimental Buffer used for many studies was composed of: 125 mM NaCl, 4 mM KCl, 0.5 mMCaCl2, 0.5 mM MgCl2, 20 mM HEPES, 1 g/l glucose, pH ˜7.4, osmolality ˜285. All other buffers were variations on this basic composition where specific components within the Standard Experimental Buffer were varied while the remaining components were held constant.
(§2) Cell suspensions consisting of a total volume of 3 ml were analyzed in a PTI fluorimeter (PTI Model 814 Photomultiplier Detection System equipped with SC-500 Shutter Controller and PTI Driver and Analysis Software) within approximately 20 min after exposure to experimental buffers. Data was acquired using standard ratio image analysis as described previously using a data acquisition rate of 1.3 sec. for 500 or 1000 second intervals.
(§3) In selected experiments, the detergent Triton X-100 was added in order to lyse the cells and quantify differences in FURA2 ratio fluorescence. Triton X-100 was added to the cells to obtain a maximal fluorescence signal from the FURA2 for purposes of quantification.
Experiments on HEK cells were performed generally as described in Example 6 herein. […] Subsequent addition of Ca2+ to a final concentration of 5 mM produced an additional response (see FIG. 26A). No response was observed upon addition of 0.025% Mintrex Zn after the addition of experimental buffer (EB) (see FIG. 26B). […] In addition, the magnitude of the CaSR response to 5 mM Ca2+ was diminished by previous addition of Mintrex Zn.
For mammalian CaSR experiments, two individual aliquots from a single pool of HEK cells that stably express the recombinant mammalian CaSR protein were used for ratio imaging fluorimetry assays of CaSR activation generally as described in Example 6 herein. Addition of Ca++ to a final concentration of 2.5 mM produced a CaSR response that was also followed by responses after subsequent additions of 0.025% Zn proteinate followed by Ca++ to a final concentration of 7.5 mM (FIG. 29B). […] There was also a response to a subsequent dose of Ca++ to a final concentration of 7.5 mM (FIG. 29B). In both tracings, the detergent Triton X-100 was added as a final step to lyse the cells.
Experiments on HEK cells were performed generally as described in Example 6 herein. […]

avian CaSR = assay: FURA2 ratio imaging fluorimetry of HEK cells stably expressing avian (chicken) CaSR; format: cell-based
Text: as §1, §2, §3
The ability of the CaSR modulator MC0100 to potentiate the response of avian and mammalian CaSRs to the chelated mineral amino acid complex, ZnPro, was tested. For avian CaSR experiments, three individual aliquots from a single pool of HEK cells that stably express the recombinant avian CaSR protein were used for ratio imaging fluorimetry assays of CaSR activation generally as described in Example 6 herein. […] In all aliquots, the detergent Triton X-100 was added as the last addition to lyse the cells (FIG. 29A).
From a single pool of HEK cells stably expressing the avian CaSR, aliquots of cells were removed and analyzed using ratio imaging fluorimetry generally as described in Example 6 herein. After a standard addition of Ca++ to a final concentration of 2.5 mM, either 0.0025%, 0.025% or 0.25% Zinc Proteinate was added followed by a second addition of Ca++ to a final concentration of 7.5 mM. Subsequently, an aliquot of the detergent Triton X-100 was added to lyse the cells. […] The magnitude of the subsequent CaSR response to Ca++ was reduced via increasing Zn Proteinate stimulation.
Fluorimetry analysis was performed on HEK cells expressing the recombinant chicken CaSR protein generally as described in Example 6 herein.

[1] = biological target: T2, recombinant human CaSR protein (Homo sapiens, UniProt P41180); assay: FURA2 ratio fluorimetry of HEK cells expressing recombinant human CaSR; format: cell-based
T2 construct: expressed in transfected cells; host or cells: HEK cells
T2 sequence (P41180 20-1078): T1 sequence (P41180 20-1078)
Text: as §1, §2, §3

recombinant CaSR protein = recombinant CaSR protein (Homo sapiens, UniProt P41180); conditions: concentrations of spermine and calcium present in sow's milk (FIG. 20C); cited from earlier work
chicken CaSR = assay: CaSR dependent ERK 1/2 phosphorylation (Western blot) in HEK cells transfected with chicken CaSR; format: cell-based; conditions: various concentrations of bacitracin Zn
Experimental: HEK cells transfected with the chicken CaSR were cultured under standard conditions (DMEM with 10% FCS). Confluent flasks were serum-starved overnight in DMEM supplemented with 0.2% BSA and pre-incubated for 60 min at 37° C. in the following medium: 125 mM NaCl, 4 mM KCl, 20 mM Hepes, 0.1% glucose, 0.8 mM NaH2PO4, 1 mM MgCl2, 0.1% BSA, 0.5 mM CaCl2, pH 7.45. The cells were then incubated in the same medium without BSA in the presence of different mineral chelates at different concentrations (see below) for 15 min at 37° C. At the end of the incubation treatment media was removed and cells were washed with PBS and than lysed in 250 microliter of M-PER lysis buffer (Pierce Chemical Company, Rockford, Ill.) containing 10 ul/ml of protease inhibitors (Pierce Chemical Company, Rockford, Ill.). Cell lysates were centrifuged for 10 min at 4° C. at 14,000×g. The protein content in the supernatants was analyzed using the BCA Protein Assay system from Pierce Chemical Company, Rockford, Ill. Equal amounts of protein (20 ug) were combined with 4× loading buffer and […] DTT, heated to 95° C., separated by SDS gel electrophoresis and electrotransferred to PVD membranes. The membranes were incubated in 1% BSA in TBS-T (TRIS-buffered saline containing Tween 20 at 0.1%) overnight. After 4 washes in TBS-T the membranes were incubated with primary antibody (anti phosphoERK at 1:400 dilution; this antibody recognizes the phosphorylated form of ERK 1/2) for 1.5 hours at room temperatures, washed 4 times and incubated with secondary antibody (anti mouse at 1:50,000 dilution). After 4 washes in TBS-T the membranes were developed using the ECL Western Blotting system.
The experiments described in FIGS. 34 A and B used the following metal chelate treatments: ZnProteinate, CuProteinate and MnProteinate (Balchem Corporation, New Hampton, N.Y.) at the following concentrations: 0.025% and 2.5%, or at a concentration of 0.025% with 1 micromolar MC 0100 (a calcimimetic); or various concentrations of bacitracin Zn.

Sequence of chicken CaSR (as listed by the source): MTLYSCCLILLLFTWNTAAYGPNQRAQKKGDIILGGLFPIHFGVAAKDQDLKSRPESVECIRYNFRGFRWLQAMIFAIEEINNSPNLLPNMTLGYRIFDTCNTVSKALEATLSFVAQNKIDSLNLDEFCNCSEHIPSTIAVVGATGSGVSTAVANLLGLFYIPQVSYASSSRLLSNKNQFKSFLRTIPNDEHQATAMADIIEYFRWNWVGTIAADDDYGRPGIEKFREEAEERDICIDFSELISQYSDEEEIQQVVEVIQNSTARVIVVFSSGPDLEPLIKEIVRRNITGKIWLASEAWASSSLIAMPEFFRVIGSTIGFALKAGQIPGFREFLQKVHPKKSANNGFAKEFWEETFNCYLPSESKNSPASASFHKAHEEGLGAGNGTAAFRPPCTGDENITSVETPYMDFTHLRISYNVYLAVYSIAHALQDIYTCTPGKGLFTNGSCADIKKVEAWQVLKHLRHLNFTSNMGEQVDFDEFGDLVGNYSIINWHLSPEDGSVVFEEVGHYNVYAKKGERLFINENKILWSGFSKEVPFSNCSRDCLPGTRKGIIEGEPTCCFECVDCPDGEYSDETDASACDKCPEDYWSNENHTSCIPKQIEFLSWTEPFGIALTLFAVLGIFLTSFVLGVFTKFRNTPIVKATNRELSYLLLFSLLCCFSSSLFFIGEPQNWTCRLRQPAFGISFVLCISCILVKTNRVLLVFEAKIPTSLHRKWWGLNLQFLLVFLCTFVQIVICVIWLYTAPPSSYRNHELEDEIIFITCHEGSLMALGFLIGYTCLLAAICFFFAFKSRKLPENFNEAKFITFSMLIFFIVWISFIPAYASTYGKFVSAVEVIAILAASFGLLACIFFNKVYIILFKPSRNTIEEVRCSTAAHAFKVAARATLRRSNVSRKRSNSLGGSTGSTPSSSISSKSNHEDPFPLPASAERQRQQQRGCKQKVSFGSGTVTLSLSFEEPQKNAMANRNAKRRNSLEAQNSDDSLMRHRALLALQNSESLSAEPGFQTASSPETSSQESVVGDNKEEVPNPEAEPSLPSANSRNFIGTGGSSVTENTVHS

## [Ca+2] [Ca2+]
Chick jejunal CaSR
  activation of the ERK kinase pathway (phospho-ERK): selective activation

## N[C@@H](Cc1ccccc1)C(=O)O [L-Phenylalanine]
Mammalian CaSR; 3 mM L-Phe after 0.025% Mintrex Zn, 1.5 mM Ca++, Ca++ to 5 mM
  effect on Mintrex Zn inhibition of CaSR response to Ca++ stimulus: reversed Mintrex-Zn's inhibition
Avian CaSR; 3 mM L-Phe after 0.25% Mintrex Zn, Ca++ to 7.5 mM
  effect on Mintrex Zn inhibition of CaSR response to Ca++ stimulus: reversed Mintrex-Zn's inhibition

## CC(C)(Cc1ccc2ccccc2c1)NC[C@@H](O)COc1cccc(Cl)c1C#N [MC106]
Mammalian CaSR; 1 micromolar MC106 added first
  effect on CaSR response to 2.5 mM Ca2+: eliminated
  effect on subsequent CaSR response to 5 mM Ca2+: reduced
Mammalian CaSR; 1 micromolar MC106 in DMSO
  CaSR response to the modulator itself: did not itself produce a CaSR response; also recorded: did not elicit a CaSR response
Mammalian CaSR; initial addition of 1 micromolar MC106
  effect on CaSR responses to 0.25% Mintrex Zn or 5.5 mM Ca2+: reduced or eliminated responses
Mammalian CaSR; pre-addition of MC106 (FIG. 30D)
  effect of modulator on CaSR stimulation by Mintrex Zn: suppress the stimulation
Avian CaSR; 1 micromolar MC106, 0.25% Zinc Proteinate
  effect of prior modulator on CaSR response to Zn Proteinate: reduced the avian CaSR's response

## NCCCN [diaminopropane]
[1]
  activation of recombinant human CaSR (intracellular calcium): sharp increase in intracellular calcium

## N=C(N)NCCC[C@H](N)C(=O)O.NCC(=O)O.NCC(=O)O [gly-gly-arg, glycine-glycine-arginine]
[1]
  activation of recombinant human CaSR (intracellular calcium): significant activation

## NCCCNCCCCNCCCN [spermine]
Recombinant CaSR protein
  activation of recombinant CaSR: activated

## Casein
[1]
  activation of recombinant human CaSR (intracellular calcium): acts as an agonist

## bacitracin Zn
Chicken CaSR
  ERK1/2 phosphorylation as compared to Ca++ with MC0100: increase in ERK1/2 phosphorylation

## bovine serum albumin: a protein that also binds calcium
[1]
  activation of recombinant human CaSR (intracellular calcium): has no effect
